Here are results for eight compounds from patent US6869964B2, “Heterocyclicsulfonamide hepatitis C virus inhibitors” (Bristol-Myers Squibb Company, priority 2002, dated 2005).

Experiment [1] deals with T1, HCV NS3/4A protease complex (BMS strain) (Hepatitis C virus genotype 1a, UniProt P27958, C1454S).
T1 construct: HCV NS3/4A protease complex (amino acids 1027 to 1711); inferred from pET21b vector and Ni-NTA purification; made in house; host or cells: Escherichia coli BL21 (DE3), pET21b
Kind of experiment: Recombinant HCV NS3/4A protease complex FRET peptide assay, BMS strain. It is filed as biochemical, HCV genotype 1a. Particulars: NS3/4A BMS Strain, activity range; read-out: IC50 a, b, c (Activity Table). An excerpt:
Recombinant HCV NS3/4A Protease Complex FRET Peptide Assay
The purpose of this in vitro assay was to measure the inhibition of HCV NS3 protease complexes, derived from the BMS, H77C or J4l6S strains, as described below, by compounds of the present invention. This assay provides an indication of how effective compounds of the present invention would be in inhibiting HCV proteolytic activity.
Serum from an HCV-infected patient was obtained from Dr. T. Wright, San Francisco Hospital. An engineered full-length cDNA template of the HCV genome (BMS strain) was constructed from DNA fragments obtained by reverse transcription-PCR (RT-PCR) of serum RNA and using primers selected on the basis of homology between other genotype la strains. From the determination of the entire genome sequence, a genotype la was assigned to the HCV isolate according to the classification of Simmonds et al. (See P Simmonds, K A Rose, S Graham, S W Chan, F McOmish, B C Dow, E A Follett, P L Yap and H Marsden, J. Clin. Microbiol., 31(6), 1493-1503 (1993)). […] The infectious clones, H77C (1a genotype) and J4 L6S (1b genotype) were obtained from R. Purcell (NIH) and the sequences are published in Genbank (AAB67036, see Yanagi, M., Purcell, R. H., Emerson, S. U. and Bukh, J. Proc. Natl. Acad. Sci. U.S.A. 94(16),8738-8743 (1997); AF054247, see Yanagi, M., St Claire, M., Shapiro, M., Emerson, S. U., Purcell, R. H. and Bukh, J, Virology 244 (1), 161-172. (1998)).
The BMS, H77C and J4 L6S strains were used for production of recombinant NS3/4A protease complexes. DNA encoding the recombinant HCV NS3/4A protease complex (amino acids 1027 to 1711) for these strains were manipulated as described by P. Gallinari et al. (see Gallinari P, Paolini C, Brennan D, Nardi C, Steinkuhler C, De Francesco R. Biochemistry. 38(17):5620-32, (1999)). Briefly, a three-lysine solubilizing tail was added at the 3′-end of the NS4A coding region. The cysteine in the P1 position of the NS4A-NS4B cleavage site (amino acid 1711) was changed to a glycine to avoid the proteolytic cleavage of the lysine tag. Furthermore, a cysteine to serine mutation was introduced by PCR at amino acid position 1454 to prevent the autolytic cleavage in the NS3 helicase domain. The variant DNA fragment was cloned in the pET21b bacterial expression vector (Novagen) and the NS3/4A complex was expressed in Escherichia coli strain BL21 (DE3) (Invitrogen) following the protocol described by P. Gallinari et al. (see Gallinari P, Brennan D, Nardi C, Brunetti M, Tomei L, Steinkuhler C, De Francesco R., J Virol. 72(8):6758-69 (1998)) with modifications. Briefly, NS3/4A expression was induced with 0.5 mM Isopropyl β-D-1-thiogalactopyranoside (IPTG) for 22 hr at 20° C. A typical fermentation (10 L) yielded approximately 80 g of wet cell paste. The cells were resuspended in lysis buffer (10 mL/g) consisting of 25 mM N-(2-Hydroxyethyl)Piperazine-N′-(2-Ethane Sulfonic acid) (HEPES), pH7.5, 20% glycerol, 500 mM Sodium Chloride (NaCl), 0.5% Triton-X100, 1 ug/ml lysozyme, 5 mM Magnesium Chloride (MgCl2), 1 ug/ml DnaseI, 5 mM β-Mercaptoethanol (βME), Protease inhibitor—Ethylenediamine Tetraacetic acid (EDTA) free (Roche), homogenized and incubated for 20 mins at 4° C. The homogenate was sonicated and clarified by ultra-centrifugation at 235000 g for lhr at 4° C. Imidazole was added to the supernatant to a final concentration of 15 mM and the pH adjusted to 8.0. The crude protein extract was loaded on a Nickel—Nitrilotriacetic acid (Ni—NTA) column pre-equilibrated with buffer B (25 mM HEPES, pH8.0, 20% glycerol, 500 mM NaCl, 0.5% Triton-X100, 15 mM imidazole, 5 mM βME). The sample was loaded at a flow rate of 1 mL/min. The column was washed with 15 column volumes of buffer C (same as buffer B except with 0.2% Triton-X100). The protein was eluted with 5 column volumes of buffer D (same as buffer C except with 200 mM Imidazole). […]

In experiment [2] the test system is HCV replicon in Huh7 cells. In words: HCV replicon cell-based assay (FRET). Set-up: species or system HCV strain 1B. Particulars: Hepatitis C virus, Huh-7; replicon, activity range; read-out: EC50 a, b, c (Activity Table). An excerpt: HCV Replicon Cell-based Assay
An HCV replicon whole cell system was established as described by Lohmann V, Korner F, Koch J, Herian U, Theilmann L, Bartenschlager R., Science 285(5424): 110-3 (1999). This system enabled us to evaluate the effects of our HCV Protease compounds on HICV RNA replication. Briefly, using the HCV strain 1B sequence described in the Lohmann paper (Assession number: AJ238799), an HCV cDNA was generated encoding the 5′ internal ribosome entry site (IRES), the neomycin resistance gene, the EMCV (encephalomyocarditis virus)-IRES and the HCV nonstructural proteins, NS3-NS5B, and 3′ non-translated region (NTR). In vitro transcripts of the cDNA were transfected into the human hepatoma cell line, Huh7. […] Resulting cell lines were characterized for positive and negative strand RNA production and protein production over time.
Huh7 cells, constitutively expressing the HCV replicon, were grown in Dulbecco's Modified Eagle Media (DMEM) containing 10% Fetal calf serum (FCS) and 1 mg/ml G418 (Gibco-BRL). Cells were seeded the night before (1.5×10^4 cells/well) in 96-well tissue-culture sterile plates. Compound and no compound controls were prepared in DMEM containing 4% FCS, 1:100 Penicillin/Streptomysin, 1:100 L-glutamine and 5% DMSO in the dilution plate (0.5% DMSO final concentration in the assay). Compound/DMSO mixes were added to the cells and incubated for 4 days at 37° C. After 4 days, plates were rinsed thoroughly with Phosphate-Buffered Saline (PBS) (3 times 150 μl). The cells were lysed with 25 μl of a lysis assay reagent containing the FRET peptide (RET S1, as described for the in vitro enzyme assay). The lysis assay reagent was made from 5× cell Luciferase cell culture lysis reagent(Promega #E153A) diluted to 1× with distilled water, NaCl added to 150 mM final, the FRET peptide diluted to 10 μM final from a 2 mM stock in 100% DMSO. The plate was then placed into the Cytofluor 4000 instrument which had been set to 340 nm excitation/490 emission, automatic mode for 21 cycles and the plate read in a kinetic mode. EC50 determinations were carried out as described for the IC50 determinations.
A general note: In antiviral work, replicon cells carry a viral genome segment that copies itself.

What is called IC50 is the point on the concentration scale where inhibition reaches its midpoint. By EC50 is commonly meant the concentration needed to bring the measured effect to its halfway point.

T1 sequence (P27958 1027-1657 C1454S): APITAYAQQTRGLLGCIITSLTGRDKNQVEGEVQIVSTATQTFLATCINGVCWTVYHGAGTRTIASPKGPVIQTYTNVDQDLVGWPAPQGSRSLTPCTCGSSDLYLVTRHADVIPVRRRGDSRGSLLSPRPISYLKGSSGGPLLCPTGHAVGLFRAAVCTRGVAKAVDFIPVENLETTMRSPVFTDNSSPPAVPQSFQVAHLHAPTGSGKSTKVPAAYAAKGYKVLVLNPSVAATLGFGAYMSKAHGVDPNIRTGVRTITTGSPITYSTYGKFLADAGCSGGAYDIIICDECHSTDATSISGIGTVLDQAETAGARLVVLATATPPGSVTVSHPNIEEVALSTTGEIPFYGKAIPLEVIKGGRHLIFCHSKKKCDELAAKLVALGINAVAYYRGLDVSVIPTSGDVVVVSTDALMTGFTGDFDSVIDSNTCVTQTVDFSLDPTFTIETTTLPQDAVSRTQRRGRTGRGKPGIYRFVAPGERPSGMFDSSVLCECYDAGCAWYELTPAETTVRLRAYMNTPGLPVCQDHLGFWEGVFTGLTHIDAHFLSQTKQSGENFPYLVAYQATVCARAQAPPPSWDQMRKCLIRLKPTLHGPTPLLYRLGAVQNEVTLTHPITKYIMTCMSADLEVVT
T1 sequence (P27958 1658-1711 partner, looked up, stated change not applied): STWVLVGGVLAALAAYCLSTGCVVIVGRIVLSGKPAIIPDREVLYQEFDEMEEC

`C=CC1C[C@]1(NC(=O)[C@@H]1C[C@@H](Oc2cc(-c3ccccc3)nc3cc(OC)ccc23)CN1C(=O)[C@@H](NC(=O)OC(C)(C)C)C(C)(C)C)C(=O)NS(=O)(=O)c1nc2ccc(OCC)cc2s1` (stereo in doubt) [Compound 15, {1-[2-[1-(6-Ethoxybenzothiazole-2-sulfonylaminocarbonyl)-2-vinyl-cyclopropylcarbamoyl]-4-(7-methoxy-2-phenyl-quinolin-4-yloxy)-pyrrolidine-1-carbonyl]-2,2-dimethylpropyl}-carbamic acid tert-butyl ester]: in experiment [1], the IC50 is 100 to 1000 nM. Also, in experiment [2], the EC50 was 1000 to 10000 nM.
Turning to `C=CC1C[C@]1(NC(=O)[C@@H]1C[C@@H](Oc2cc(-c3ccccc3)nc3cc(OC)ccc23)CN1C(=O)[C@@H](NC(=O)OC(C)(C)C)C(C)(C)C)C(=O)NS(=O)(=O)c1ccc([N+](=O)[O-])s1` (stereo in doubt) [Compound 3, (1-{4-(7-Methoxy-2-phenylquinolin-4-yloxy)-2-[1-(5-Nitrothiophene-2-sulfonylaminocarbonyl)-2-vinyl-cyclopropylcarbamoyl]pyrrolidine-1-carbonyl}-2,2-dimethylpropyl)carbamic acid tert-butyl ester], the IC50 in experiment [1] lay in the range of 100 to 1000 nM. Besides, the EC50 in experiment [2] lay within 100 to 1000 nM.
With `C=CC1C[C@]1(NC(=O)[C@@H]1C[C@@H](Oc2cc(-c3ccccc3)nc3cc(OC)ccc23)CN1C(=O)[C@@H](NC(=O)OC(C)(C)C)C(C)(C)C)C(=O)NS(=O)(=O)c1ccc(Sc2ccc(Cl)cc2)s1` (stereo in doubt) [Compound 5, {1-[2-{1-[5-(4-Chlorophenylsulfanyl)-thiophene-2-sulfonylamino-carbonyl]-2-vinyl-cyclopropylcarbamoyl}-4-(7-methoxy-2-phenyl-quinolin-4-yloxy)-pyrrolidine-1-carbonyl]-2,2-dimethylpropyl}carbamic acid tert-butyl ester], the IC50 in experiment [1] lay in the range of 100 to 1000 nM. Also, in experiment [2], the EC50 lay within 1000 to 10000 nM.
As for `C=CC1C[C@]1(NC(=O)[C@@H]1C[C@@H](Oc2cc(-c3ccccc3)nc3cc(OC)ccc23)CN1C(=O)[C@@H](NC(=O)OC(C)(C)C)C(C)(C)C)C(=O)NS(=O)(=O)C1CCS(=O)(=O)C1` (mixture of isomers) [Compound 13, {1-[2-[1-(1,1-Dioxo-tetrahydro-1H-1[…]6-thiophene-3(R/S)-sulfonylaminocarbonyl)-2-vinylcyclopropylcarbamoyl]-4-(7-methoxy-2-phenyl-quinolin-4-yloxy)pyrrolidine-1-carbonyl]-2,2-dimethylpropyl}carbamic acid tert-butyl ester], the IC50 in experiment [1] was below 100 nM. Moreover, the EC50 in experiment [2] was in the range of 100 to 1000 nM.
For the compound `C=CC1C[C@]1(NC(=O)[C@@H]1C[C@@H](Oc2cc(-c3ccccc3)nc3cc(OC)ccc23)CN1C(=O)[C@@H](NC(=O)OC(C)(C)C)C(C)(C)C)C(=O)NS(=O)(=O)c1sc(C)nc1C` (stereo in doubt) [Compound 9, {1-[2-{1-[2,4-dimethylthiazole-5-sulfonylaminocarbonyl]-2-vinylcyclopropylcarbamoyl}-4-(7-methoxy-2-phenyl-quinolin-4-yloxy)pyrrolidine-1-carbonyl]-2,2-dimethylpropyl}carbamic acid tert-butyl ester], in experiment [1], the IC50 was below 100 nM. Further, the EC50 in experiment [2] was in the range of 100 to 1000 nM.
The like results for `C=CC1C[C@]1(NC(=O)[C@@H]1C[C@@H](Oc2cc(-c3ccccc3)nc3cc(OC)ccc23)CN1C(=O)[C@@H](NC(=O)OC(C)(C)C)C(C)(C)C)C(=O)NS(=O)(=O)c1nnc(NC(C)=O)s1` (stereo in doubt) [Compound 12, {1-[2-[1-(5-Acetylamino-[1,3,4]thiadiazole-2-sulfonylaminocarbonyl)-2-vinylcyclopropylcarbamoyl]-4-(7-methoxy-2-phenyl-quinolin-4-yloxy)-pyrrolidine-1-carbonyl]-2,2-dimethylpropyl}carbamic acid tert-butyl ester] were, in that order, 100 to 1000 nM and 1000 to 10000 nM.
Take `C=CC1C[C@]1(NC(=O)[C@@H]1C[C@@H](Oc2cc(-c3ccccc3)nc3cc(OC)ccc23)CN1C(=O)[C@@H](NC(=O)OC(C)(C)C)C(C)(C)C)C(=O)NS(=O)(=O)c1ccc(-c2cc(C(F)(F)F)nn2C)s1` (stereo in doubt) [Compound 17, [1-(4-(7-Methoxy-2-phenyl-quinolin-4-yloxy)-2-{1-[5-(2-methyl-5-trifluoromethyl-2H-pyrazol-3-yl)thiophene-2-sulfonylaminocarbonyl]-2-vinyl-cyclopropylcarbamoyl}-pyrrolidine-1-carbonyl)-2,2-dimethylpropyl]carbamic acid tert-butyl ester]: the IC50 in experiment [1] was below 100 nM. In addition, the EC50 in experiment [2] is 100 to 1000 nM.
As to `C=CC1C[C@]1(NC(=O)[C@@H]1C[C@@H](Oc2cc(-c3ccccc3)nc3cc(OC)ccc23)CN1C(=O)[C@@H](NC(=O)OC(C)(C)C)C(C)(C)C)C(=O)NS(=O)(=O)c1cc(Cl)c(Cl)s1` (stereo in doubt) [Compound 8, {1-[2-{1-[4,5-dichlorothiophene-2-sulfonylaminocarbonyl]-2-vinylcyclopropylcarbamoyl}-4-(7-methoxy-2-phenyl-quinolin-4-yloxy)pyrrolidine-1-carbonyl]-2,2-dimethylpropyl}carbamic acid tert-butyl ester], in experiment [1], the IC50 is below 100 nM. Besides, the EC50 in experiment [2] fell in the range of 100 to 1000 nM.
